Assays:
[1] = target: T1, CHMOAcineto (Acinetobacter johnsonii, UniProt P12015); experiment: NADPH oxidation at […] nm; type: biochemical; details: 100 μM NADPH, 50 mM Tris-HCl, 30 °C
T1 construct: gene chnB

[2] = target: T2, TmCHMO (Thermocrispum municipale, UniProt A0A1L1QK39); experiment: NADPH oxidation at […] nm; type: biochemical; details: 0.5 mM cyclohexanone, 100 μM NADPH, 10 μM FAD, 50 mM Tris-HCl, 30 °C
T2 sequence (A0A1L1QK39 1-541): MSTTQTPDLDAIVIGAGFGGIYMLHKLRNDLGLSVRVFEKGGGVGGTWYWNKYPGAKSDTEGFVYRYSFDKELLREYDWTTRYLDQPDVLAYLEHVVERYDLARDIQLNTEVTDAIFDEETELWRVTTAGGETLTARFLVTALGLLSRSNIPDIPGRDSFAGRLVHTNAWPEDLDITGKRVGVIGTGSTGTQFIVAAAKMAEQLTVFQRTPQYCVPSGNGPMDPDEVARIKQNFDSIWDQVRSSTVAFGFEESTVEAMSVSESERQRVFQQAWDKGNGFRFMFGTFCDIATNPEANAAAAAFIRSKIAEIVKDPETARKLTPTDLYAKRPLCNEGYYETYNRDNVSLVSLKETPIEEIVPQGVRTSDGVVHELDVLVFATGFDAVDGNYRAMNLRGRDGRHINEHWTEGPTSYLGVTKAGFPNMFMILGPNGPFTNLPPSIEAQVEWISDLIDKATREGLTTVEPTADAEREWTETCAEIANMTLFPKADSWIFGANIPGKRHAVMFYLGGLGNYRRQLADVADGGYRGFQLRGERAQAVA

[3] = test system: O=C1CCCCC1; experiment: purified protein; details: 100 μM NADPH, 50 mM Tris-HCl, 30 °C

T1 sequence (P12015 2-543): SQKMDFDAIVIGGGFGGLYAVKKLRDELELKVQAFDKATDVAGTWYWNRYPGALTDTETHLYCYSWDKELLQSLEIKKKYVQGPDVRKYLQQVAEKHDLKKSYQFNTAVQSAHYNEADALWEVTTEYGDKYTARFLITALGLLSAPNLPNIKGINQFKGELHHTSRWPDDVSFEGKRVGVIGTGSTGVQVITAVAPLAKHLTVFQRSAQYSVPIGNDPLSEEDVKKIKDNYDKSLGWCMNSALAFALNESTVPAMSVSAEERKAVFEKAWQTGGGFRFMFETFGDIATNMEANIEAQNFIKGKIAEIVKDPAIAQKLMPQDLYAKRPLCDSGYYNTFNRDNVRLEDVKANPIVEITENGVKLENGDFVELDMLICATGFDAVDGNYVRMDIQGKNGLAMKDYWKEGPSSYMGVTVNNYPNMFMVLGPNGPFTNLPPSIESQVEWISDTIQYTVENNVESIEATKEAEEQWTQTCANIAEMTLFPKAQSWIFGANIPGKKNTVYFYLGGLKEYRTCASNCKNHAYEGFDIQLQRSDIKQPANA

Row | Compound | Km [1] [µM] | NADPH oxidation at 340 nm [2] | Km [3] [µM] | kcat [3] [s⁻¹]
1 | O=C1CCCCC1 [cyclohexanone] | 6.74 ± 2 | The activity was comparable to that of TmCHMO |  | 
2 | BVMOFlava (Amycolatopsis thermoflava) |  |  | 0.53 ± 0.1 | 1.5 ± 0.1

— PMC7187199, “Investigation of a New Type I Baeyer–Villiger Monooxygenase from Amycolatopsis thermoflava Revealed High Thermodynamic but Limited Kinetic Stability” (Chembiochem, 2020)
